From patent US7709482B2, “Polycyclic heteroaryl substituted triazoles useful as Axl inhibitors” (Rigel Pharmaceuticals, Inc., priority 2006, dated 2010)
Where two headings read alike, the source gives them in different places.

Target: T1, Axl (Homo sapiens, UniProt P30530)
T1 construct: endogenous in cells; host or cells: HeLa cells
T1 sequence (P30530 26-894): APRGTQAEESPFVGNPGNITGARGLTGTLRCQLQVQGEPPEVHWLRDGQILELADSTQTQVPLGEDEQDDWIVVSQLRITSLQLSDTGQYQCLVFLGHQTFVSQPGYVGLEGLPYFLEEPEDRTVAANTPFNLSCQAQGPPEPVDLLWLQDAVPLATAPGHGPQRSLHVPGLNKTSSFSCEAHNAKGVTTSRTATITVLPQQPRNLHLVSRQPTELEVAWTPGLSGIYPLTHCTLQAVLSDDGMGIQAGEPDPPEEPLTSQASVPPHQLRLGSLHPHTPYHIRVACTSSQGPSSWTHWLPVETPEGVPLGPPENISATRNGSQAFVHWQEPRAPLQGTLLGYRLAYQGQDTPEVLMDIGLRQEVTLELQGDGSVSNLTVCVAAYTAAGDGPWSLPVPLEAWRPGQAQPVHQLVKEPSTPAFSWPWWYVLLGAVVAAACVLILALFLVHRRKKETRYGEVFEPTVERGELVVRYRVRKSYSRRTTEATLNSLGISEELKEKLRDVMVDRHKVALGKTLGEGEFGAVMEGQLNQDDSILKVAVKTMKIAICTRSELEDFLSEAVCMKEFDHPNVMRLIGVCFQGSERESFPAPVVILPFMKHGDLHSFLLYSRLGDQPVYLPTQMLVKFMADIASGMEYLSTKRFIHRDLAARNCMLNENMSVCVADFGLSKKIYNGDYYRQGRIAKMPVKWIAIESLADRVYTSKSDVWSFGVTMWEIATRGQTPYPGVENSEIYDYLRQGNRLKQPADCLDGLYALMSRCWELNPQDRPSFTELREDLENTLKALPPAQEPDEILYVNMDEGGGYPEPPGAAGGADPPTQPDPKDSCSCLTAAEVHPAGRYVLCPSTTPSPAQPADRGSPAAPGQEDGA
Test: Phospho-Akt In-Cell Western Assay (inhibition of Axl activity after Axl-antibody cross-linking)
Assay type: cell-based
Conditions: read-out: IC50
Summary of the method: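 HeLa cells on poly-L-lysine, starved 24 h in 0.5% FCS DMEM with Axl/Fc 500 ng/mL, pre-treated with compound 1 h at 37 °C, then stimulated 5 min by anti-Axl/anti-mouse antibody cross-linking. Fixed cells probed for phospho-Akt with HRP secondary and chemiluminescent detection.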

[1] = Hela cells, phospho-Akt chemiluminescence normalized to relative cell number, compounds of formula (Ib), Table 2
[2] = inhibition of Axl activity, Table 1, compounds of formula (Ia)

| SMILES | IC50 [1] [µM] | IC50 [2] [µM] |
| --- | --- | --- |
| CN1CCC(N2CCc3ccc(Nc4nc(N)nn4-c4cc5c(nn4)-c4ccccc4CCC5)cc3C2)CC1 [Compound 245, 1-(6,7-dihydro-5H-benzo[6,7]cyclohepta[1,2-c]pyridazin-3-yl)-N^5-(2-(1-methylpiperidin-4-yl)-1,2,3,4-tetrahydroisoquinolin-7-yl)-1H-1,2,4-triazole-3,5-diamine] | 1 to 10 |  |
| Cc1csc2c(-n3nc(Nc4cnc5c(c4)CCC4(CCC5)OCC(C)(C)CO4)nc3N)nc(Cl)nc12 [Compound 246, 1-(2-chloro-7-methylthieno[3,2-d]pyrimidin-4-yl)-N^3-(5′,5′-dimethyl-6,8,9,10-tetrahydro-5H-spiro[cycloocta[b]pyridine-7,2′-[1,3]dioxane]-3-yl)-1H-1,2,4-triazole-3,5-diamine] |  | < 1 |
| Nc1nc(Nc2ccc3c(c2)CC[C@@H](N2CCCC2)CC3)n(-c2cc3c(nn2)-c2ccccc2CCC3)n1 [Compound 249, 1-(6,7-dihydro-5H-benzo[6,7]cyclohepta[1,2-c]pyridazin-3-yl)-N^5-(7-(S)-pyrrolidin-1-yl-6,7,8,9-tetrahydro-5H-benzo[7]annulene-2-yl)-1H-1,2,4-triazole-3,5-diamine] | < 1 |  |

Now from value to molecule:

| IC50 [1] [µM] | IC50 [2] [µM] | SMILES |
| --- | --- | --- |
|  | > 20 | CC1(C)COC2(CCCc3ncc(Nc4nc(N)n(-c5cc6c(nn5)-c5ccccc5CCC6)n4)cc3CC2)OC1 [Compound 247, 1-(6,7-dihydro-5H-benzo[6,7]cyclohepta[1,2-c]pyridazin-3-yl)-N^3-(5′,5′-dimethyl-6,8,9,10-tetrahydro-5H-spiro[cycloocta[b]pyridine-7,2′-[1,3]dioxane]-3-yl)-1H-1,2,4-triazole-3,5-diamine] |
| > 20 |  | Nc1nc(Nc2cnc3c(c2)CC2(CCC3)OCCO2)n(-c2cc3c(nn2)-c2ccccc2CCC3)n1 [Compound 248, 1-(6,7-dihydro-5H-benzo[6,7]cyclohepta[1,2-c]pyridazin-3-yl)-N^5-(5,7,8,9-tetrahydrospiro[cyclohepta[b]pyridine-6,2′[1,3]dioxolane]-3-yl)-1H-1,2,4-triazole-3,5-diamine] |
